Laboratory results: US20170136021A1, “METHODS AND COMPOSITIONS FOR TREATING ENVELOPED VIRUSES” (priority 2014, published 2017)

Tests used:
rVSV-EBOV-GP = experiment: organism not typed; type: cell-based, vesicular stomatitis virus expressing EBOV glycoprotein
Ebola virus [1] = experiment: microbe, parasite or virus in culture; type: cell-based; details: for EC50: Zaire ebolavirus, Vero, read-out: EC50 of Ebola infection
Ebola virus [2] = type: cell-based
Ebola virus [3] = system: Ebola virus; design: species or system mice; details: mouse, in vivo

Row | SMILES | IC50 (rVSV-EBOV-GP; Vero, 20 h, read-out: IC50 of viral entry inhibition) [µM] | EC50 (Ebola virus [1]) [µM] | Ebola replication in cells (Ebola virus [2]) | percentage of Ebola positive cells versus concentration (inhibition of Ebola) (Ebola virus [2]) | Ebola entry (rVSV-EBOV-GP) | overall infection with Ebola virus (Ebola virus [1]) | mortality of Ebola infected mice (Ebola virus [3]) | percentage survival (Ebola virus [3]; 30 mg/kg) [%]
1 | CCN(CC)CCNC(=O)c1c(C)[nH]c(/C=C2\C(=O)Nc3ccc(F)cc32)c1C [sunitinib] | 6.15 | 2.25 |  |  |  |  |  | 
2 | C#Cc1cccc(Nc2ncnc3cc(OCCOC)c(OCCOC)cc23)c1 [erlotinib] |  | 4.22 | reduces | inhibition of Ebola by erlotinib in a dose-dependent manner | reduced Ebola entry in a dose-dependent manner | dose-dependent reduction | reduces | 100
